Results reported in US7880007B2, “Bicyclic substituted phenyl piperidine modulators of muscarinic receptors” (Vertex Pharmaceuticals Incorporated, priority 2004, dated 2011).

Legend:
Type in all cases: cell-based
M1 muscarinic receptor = target: T1, M1 muscarinic receptor (Homo sapiens, UniProt P11229); experiment: Functional mobilization of intracellular calcium (FLIPR), M1-CHO cells; conditions: for M1 Activity: M1-CHO cells, calcium mobilization (FLIPR)
T1 construct: expressed in transfected cells; host or cells: CHO (M1-CHO)
T1 sequence (P11229 1-460): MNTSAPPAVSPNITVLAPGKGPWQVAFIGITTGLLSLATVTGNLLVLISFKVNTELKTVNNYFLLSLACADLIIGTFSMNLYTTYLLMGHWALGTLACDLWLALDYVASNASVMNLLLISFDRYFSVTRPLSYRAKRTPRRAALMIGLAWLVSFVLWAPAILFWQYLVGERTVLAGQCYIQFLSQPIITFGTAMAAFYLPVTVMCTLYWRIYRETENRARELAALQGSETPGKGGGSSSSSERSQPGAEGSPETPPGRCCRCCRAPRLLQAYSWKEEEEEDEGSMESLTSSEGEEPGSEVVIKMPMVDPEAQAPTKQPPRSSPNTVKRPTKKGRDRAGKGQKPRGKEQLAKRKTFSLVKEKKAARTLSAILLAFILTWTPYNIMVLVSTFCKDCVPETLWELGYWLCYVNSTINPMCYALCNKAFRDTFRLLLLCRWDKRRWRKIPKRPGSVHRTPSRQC
How it was run: (§1)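 Calcium mobilisation read by FLIPR over 60 s (ex 488/em 540 nm) in recombinant muscarinic CHO lines loaded with calcium dye plus 1 mM probenecid. Compounds tested as agonists alone, or as inhibitors against EC80 carbachol after 15 min pre-incubation or co-addition; 0.5% DMSO; efficacy scaled to carbachol maximal response.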

M2 muscarinic receptor = target: T2, M2 muscarinic receptor (Homo sapiens, UniProt P08172); experiment: Functional mobilization of intracellular calcium (FLIPR), M2-CHO cells; conditions: for M2 Activity: M2-CHO cells, calcium mobilization (FLIPR)
T2 construct: expressed in transfected cells; host or cells: CHO (M2-CHO)
T2 sequence (P08172 1-466): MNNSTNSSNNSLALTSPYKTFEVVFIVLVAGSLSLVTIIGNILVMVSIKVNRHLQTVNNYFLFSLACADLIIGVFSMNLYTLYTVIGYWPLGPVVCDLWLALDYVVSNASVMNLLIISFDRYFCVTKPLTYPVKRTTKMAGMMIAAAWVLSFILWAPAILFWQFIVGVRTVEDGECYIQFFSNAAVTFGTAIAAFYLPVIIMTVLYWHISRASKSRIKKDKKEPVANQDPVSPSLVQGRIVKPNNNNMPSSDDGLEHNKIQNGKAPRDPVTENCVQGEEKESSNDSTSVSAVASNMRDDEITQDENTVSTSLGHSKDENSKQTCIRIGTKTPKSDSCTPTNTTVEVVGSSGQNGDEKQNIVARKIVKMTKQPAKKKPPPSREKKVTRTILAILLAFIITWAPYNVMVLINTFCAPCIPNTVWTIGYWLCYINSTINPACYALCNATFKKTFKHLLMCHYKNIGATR
How it was run: as §1

M3 muscarinic receptor = target: T3, M3 muscarinic receptor (Homo sapiens, UniProt P20309); experiment: Functional mobilization of intracellular calcium (FLIPR), M3-CHO cells; conditions: for M3 Activity: M3-CHO cells, calcium mobilization (FLIPR)
T3 construct: expressed in transfected cells; host or cells: CHO (M3-CHO)
T3 sequence (P20309 whole entry): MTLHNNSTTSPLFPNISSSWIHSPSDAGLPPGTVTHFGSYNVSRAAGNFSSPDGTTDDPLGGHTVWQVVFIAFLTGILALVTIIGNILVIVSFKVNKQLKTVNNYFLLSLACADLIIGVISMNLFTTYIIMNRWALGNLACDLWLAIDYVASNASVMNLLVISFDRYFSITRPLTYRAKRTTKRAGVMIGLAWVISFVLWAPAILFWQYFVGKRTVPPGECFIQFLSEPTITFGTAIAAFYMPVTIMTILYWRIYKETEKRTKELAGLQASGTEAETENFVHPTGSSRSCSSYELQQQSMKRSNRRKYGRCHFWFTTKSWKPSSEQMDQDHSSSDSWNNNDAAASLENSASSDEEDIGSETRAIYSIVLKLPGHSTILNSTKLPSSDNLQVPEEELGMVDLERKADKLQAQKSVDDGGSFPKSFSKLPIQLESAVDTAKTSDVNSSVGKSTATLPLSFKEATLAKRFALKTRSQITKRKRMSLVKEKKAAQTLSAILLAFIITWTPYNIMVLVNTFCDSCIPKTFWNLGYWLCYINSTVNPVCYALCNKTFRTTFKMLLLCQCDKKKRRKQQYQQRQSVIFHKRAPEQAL
How it was run: as §1

M4 muscarinic receptor = target: T4, M4 muscarinic receptor (Homo sapiens, UniProt P08173); experiment: Functional mobilization of intracellular calcium (FLIPR), M4-CHO cells; conditions: for M4 Activity: M4-CHO cells, calcium mobilization (FLIPR)
T4 construct: expressed in transfected cells; host or cells: CHO (M4-CHO)
T4 sequence (P08173 1-479): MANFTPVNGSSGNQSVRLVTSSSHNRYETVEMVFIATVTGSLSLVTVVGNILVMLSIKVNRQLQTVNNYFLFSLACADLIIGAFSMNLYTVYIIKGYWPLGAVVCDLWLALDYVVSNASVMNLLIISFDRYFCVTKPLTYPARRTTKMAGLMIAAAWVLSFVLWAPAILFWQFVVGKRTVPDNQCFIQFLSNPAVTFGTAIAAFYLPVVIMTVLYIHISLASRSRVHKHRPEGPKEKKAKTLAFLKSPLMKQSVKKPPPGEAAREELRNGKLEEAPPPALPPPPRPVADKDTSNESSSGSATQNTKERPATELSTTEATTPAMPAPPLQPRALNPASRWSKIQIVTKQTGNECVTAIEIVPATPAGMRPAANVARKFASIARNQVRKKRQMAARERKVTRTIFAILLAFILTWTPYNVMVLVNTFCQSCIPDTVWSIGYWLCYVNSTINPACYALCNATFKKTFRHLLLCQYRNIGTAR
How it was run: as §1

[1] = 100% efficacy = maximum response obtained with the Carbachol control
[2] = 100% efficacy is the maximum response obtained with the Carbachol control

SMILES | Emax (M1 muscarinic receptor; [1]) [%] | M1 Activity (M1 muscarinic receptor) | Emax (M2 muscarinic receptor; [1]) [%] | M2 Activity (M2 muscarinic receptor) | Emax (M3 muscarinic receptor; [1]) [%] | M3 Activity (M3 muscarinic receptor) | Emax (M4 muscarinic receptor; [1]) [%] | M4 Activity (M4 muscarinic receptor) | Emax (M1 muscarinic receptor; [2]) [%] | Emax (M2 muscarinic receptor; [2]) [%] | Emax (M3 muscarinic receptor; [2]) [%] | Emax (M4 muscarinic receptor; [2]) [%]
COc1ccc(F)cc1C1(O)CCN(CC2CCOCC2)CC1 [Compound 231] | < 25 | + (activity was measured to be greater than 5.0 μM) | < 25 | + (activity was measured to be greater than 5.0 μM) | < 25 | + (activity was measured to be greater than 5.0 μM) | < 25 | + (activity was measured to be greater than 5.0 μM) | – | – | – | –
COc1ccc(F)cc1C1CCN(C2CCOCC2)CC1 [Compound 193] | 25 to 100 | ++ (activity was measured to be from 1.0 μM to 5.0 μM) | 25 to 100 | + (activity was measured to be greater than 5.0 μM) | < 25 | + (activity was measured to be greater than 5.0 μM) | 25 to 100 | +++ (activity was measured to be less than 1.0 μM) | – | – | – | –
O=C(COc1ccccc1C1CCN([C@H]2C[C@H]3CC[C@H]2C3)CC1)c1ccccc1Cl [Compound 170] | < 25 | + (activity was measured to be greater than 5.0 μM) | < 25 | + (activity was measured to be greater than 5.0 μM) | < 25 | + (activity was measured to be greater than 5.0 μM) | 25 to 100 | +++ (activity was measured to be less than 1.0 μM) | – | – | – | –
COc1ccccc1C1CCN(C2CCC(C)C2)CC1 (stereo not drawn) [Compound 265] | 25 to 100 | + (activity was measured to be greater than 5.0 μM) | < 25 | + (activity was measured to be greater than 5.0 μM) | < 25 | + (activity was measured to be greater than 5.0 μM) | 25 to 100 | +++ (activity was measured to be less than 1.0 μM) | – | – | – | –
COc1ccc(F)cc1C1(O)CCN(C[C@H]2C[C@H]3C=C[C@H]2C3)CC1 [Compound 340] | 25 to 100 | + (activity was measured to be greater than 5.0 μM) | 25 to 100 | + (activity was measured to be greater than 5.0 μM) | < 25 | + (activity was measured to be greater than 5.0 μM) | 25 to 100 | +++ (activity was measured to be less than 1.0 μM) | – | – | – | –
COc1ccc(F)cc1C1(OC)CCN(C2CC3CCC(C3)C2)CC1 (stereo not drawn) [Compound 247] | < 25 | + (activity was measured to be greater than 5.0 μM) | < 25 | + (activity was measured to be greater than 5.0 μM) | < 25 | + (activity was measured to be greater than 5.0 μM) | 25 to 100 | +++ (activity was measured to be less than 1.0 μM) | – | – | – | –
CCOC(=O)N1C2CCC1CC(N1CCC(c3cc(-c4ccc(C(=O)NC)cc4)ccc3OC)CC1)C2 (stereo not drawn) [Compound 270] | 25 to 100 | +++ (activity was measured to be less than 1.0 μM) | < 25 | + (activity was measured to be greater than 5.0 μM) | < 25 | + (activity was measured to be greater than 5.0 μM) | 25 to 100 | +++ (activity was measured to be less than 1.0 μM) | – | – | – | –
COc1ccccc1C(=O)COc1ccccc1C1CCN([C@H]2C[C@H]3CC[C@H]2C3)CC1 [Compound 422] | – | ++ (activity was measured to be from 1.0 μM to 5.0 μM) | – | ++ (activity was measured to be from 1.0 μM to 5.0 μM) | – | + (activity was measured to be greater than 5.0 μM) | – | +++ (activity was measured to be less than 1.0 μM) | 25 to 100 | 25 to 100 | < 25 | 25 to 100
COc1ccccc1C1CCN(C2CCN(C(=O)c3ccccc3)CC2)CC1 [Compound 71] | < 25 | + (activity was measured to be greater than 5.0 μM) | < 25 | + (activity was measured to be greater than 5.0 μM) | < 25 | + (activity was measured to be greater than 5.0 μM) | < 25 | + (activity was measured to be greater than 5.0 μM) | – | – | – | –
COC(=O)c1ccc(-c2ccccc2C2CCN([C@H]3C[C@H]4CC[C@H]3C4)CC2)cc1 [Compound 251] | 25 to 100 | + (activity was measured to be greater than 5.0 μM) | 25 to 100 | + (activity was measured to be greater than 5.0 μM) | < 25 | + (activity was measured to be greater than 5.0 μM) | 25 to 100 | +++ (activity was measured to be less than 1.0 μM) | – | – | – | –
O=C(COc1ccccc1C1CCN([C@H]2C[C@H]3CC[C@H]2C3)CC1)c1ccccc1 [Compound 269] | 25 to 100 | + (activity was measured to be greater than 5.0 μM) | < 25 | + (activity was measured to be greater than 5.0 μM) | < 25 | + (activity was measured to be greater than 5.0 μM) | 25 to 100 | +++ (activity was measured to be less than 1.0 μM) | – | – | – | –
COc1ccc(-c2ccc3c(c2)OCO3)cc1C1CCN(C2CC3CCC(C3)C2)CC1 (stereo not drawn) [Compound 77] | < 25 | + (activity was measured to be greater than 5.0 μM) | < 25 | + (activity was measured to be greater than 5.0 μM) | < 25 | + (activity was measured to be greater than 5.0 μM) | 25 to 100 | + (activity was measured to be greater than 5.0 μM) | – | – | – | –
